Assay results: ChEMBL document CHEMBL1201862, “PubChem BioAssay data set” (2004)
Active and inactive are the calls of the source.

Legend:
[1] = test system: INS1; test: beta cell apoptosis inhibitors, cytokine rescue, dose response, luminescence, retest (AID 449756); format: functional, cell-based; conditions: Rattus norvegicus, INS1;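 note: cell death triggered by IL-1 beta plus TNF-alpha plus IFN-gamma mixture; protective hits raise ATP signal compared with cytokine alone wells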
[2] = molecular target: T1, Zinc finger protein mex-5 (Caenorhabditis elegans, UniProt Q9XUB2); test: MEX-5/TCR-2 RNA interaction inhibitors, dose response, biochemical, C. elegans, fluorescence polarization (AID 1960)
T1 sequence (Q9XUB2 whole entry): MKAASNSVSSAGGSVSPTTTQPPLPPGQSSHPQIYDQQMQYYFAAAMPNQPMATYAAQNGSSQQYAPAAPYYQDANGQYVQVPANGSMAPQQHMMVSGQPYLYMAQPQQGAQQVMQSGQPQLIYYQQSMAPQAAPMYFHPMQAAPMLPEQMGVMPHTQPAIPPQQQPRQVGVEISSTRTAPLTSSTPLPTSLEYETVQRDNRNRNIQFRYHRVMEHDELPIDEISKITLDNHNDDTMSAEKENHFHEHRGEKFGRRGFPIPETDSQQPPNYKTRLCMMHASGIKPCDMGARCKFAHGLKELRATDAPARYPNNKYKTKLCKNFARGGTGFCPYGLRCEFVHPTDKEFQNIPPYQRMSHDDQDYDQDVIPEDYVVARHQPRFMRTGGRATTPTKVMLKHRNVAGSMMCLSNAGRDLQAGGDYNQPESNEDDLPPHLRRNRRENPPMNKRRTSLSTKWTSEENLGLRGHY

[3] = molecular target: Glucose-6-phosphate 1-dehydrogenase (Homo sapiens, UniProt P11413); test: human G6PD enzyme inhibitors, dose response, selectivity assay for P. falciparum G6PD inhibitor project, biochemical, fluorescence (AID 504792); format: functional
Glucose-6-phosphate 1-dehydrogenase, sequence (P11413 whole entry, the tested form may be a part): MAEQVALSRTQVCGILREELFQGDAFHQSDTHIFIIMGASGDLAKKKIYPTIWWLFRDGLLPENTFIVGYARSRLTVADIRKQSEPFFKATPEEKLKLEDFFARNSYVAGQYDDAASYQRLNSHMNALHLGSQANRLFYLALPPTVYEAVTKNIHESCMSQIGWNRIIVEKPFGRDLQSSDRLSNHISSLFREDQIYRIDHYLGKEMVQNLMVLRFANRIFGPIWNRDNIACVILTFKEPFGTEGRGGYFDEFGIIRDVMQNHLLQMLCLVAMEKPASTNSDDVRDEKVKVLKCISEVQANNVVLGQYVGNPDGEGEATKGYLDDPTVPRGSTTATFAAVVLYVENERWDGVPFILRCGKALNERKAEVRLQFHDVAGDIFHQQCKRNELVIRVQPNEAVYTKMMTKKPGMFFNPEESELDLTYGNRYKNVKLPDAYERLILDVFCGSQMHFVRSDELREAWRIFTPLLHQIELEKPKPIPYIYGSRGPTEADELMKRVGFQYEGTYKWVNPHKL

[4] = molecular target: T2, RNA-binding protein pos-1 (Caenorhabditis elegans, UniProt G5EF15); test: inhibitors of POS-1/mex-3 RNA binding, dose response, biochemical, fluorescence polarization (AID 1964);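 note: purified POS-1 fused to maltose binding protein made in E. coli; potency of compounds blocking POS-1 binding to fluorescent RNA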
T2 sequence (G5EF15 whole entry): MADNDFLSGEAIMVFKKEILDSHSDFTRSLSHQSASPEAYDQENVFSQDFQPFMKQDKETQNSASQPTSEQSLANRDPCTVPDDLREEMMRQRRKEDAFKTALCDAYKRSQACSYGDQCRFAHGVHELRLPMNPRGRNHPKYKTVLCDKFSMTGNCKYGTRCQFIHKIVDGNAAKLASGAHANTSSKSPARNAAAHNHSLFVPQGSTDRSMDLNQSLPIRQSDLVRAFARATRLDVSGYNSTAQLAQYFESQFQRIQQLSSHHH

[5] = molecular target: DNA dC->dU-editing enzyme APOBEC-3A (Homo sapiens, UniProt P31941); test: Dose Response confirmation of small molecule APOBEC3A DNA Deaminase Inhibitors via a fluorescence-based single-stranded DNA deaminase assay. [Related pubchem assays (depositor defined):AID493011, AID493024]; format: functional
DNA dC->dU-editing enzyme APOBEC-3A, sequence (P31941 whole entry): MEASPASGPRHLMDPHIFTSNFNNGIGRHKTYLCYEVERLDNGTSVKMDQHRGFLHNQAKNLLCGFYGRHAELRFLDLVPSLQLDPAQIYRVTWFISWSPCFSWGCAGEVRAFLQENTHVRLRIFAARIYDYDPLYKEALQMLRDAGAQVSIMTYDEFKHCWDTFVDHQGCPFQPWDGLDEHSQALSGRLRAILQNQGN

[6] = molecular target: DNA dC->dU-editing enzyme APOBEC-3G (Homo sapiens, UniProt Q9HC16); format: functional;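 note: Dose-response counterscreen measuring inhibition of APOBEC3G DNA deaminase activity, run while confirming APOBEC3A inhibitors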
DNA dC->dU-editing enzyme APOBEC-3G, sequence (Q9HC16 whole entry): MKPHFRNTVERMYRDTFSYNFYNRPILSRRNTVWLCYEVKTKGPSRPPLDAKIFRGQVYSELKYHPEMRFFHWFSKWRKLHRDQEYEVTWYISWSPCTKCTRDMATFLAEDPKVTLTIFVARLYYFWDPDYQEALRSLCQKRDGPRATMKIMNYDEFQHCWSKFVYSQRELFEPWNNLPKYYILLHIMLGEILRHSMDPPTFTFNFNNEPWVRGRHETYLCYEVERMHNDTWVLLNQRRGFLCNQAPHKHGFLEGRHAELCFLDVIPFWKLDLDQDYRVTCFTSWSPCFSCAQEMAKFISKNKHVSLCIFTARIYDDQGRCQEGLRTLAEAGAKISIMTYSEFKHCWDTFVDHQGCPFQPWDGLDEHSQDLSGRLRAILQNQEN

[7] = test system: HEK293; test: cells; conditions: Homo sapiens
[8] = test system: HEK293; test: cells; conditions: Homo sapiens; remark: listed apart in the source
[9] = molecular target: T3, Mucolipin-3 (Homo sapiens, UniProt Q8TDD5); test: Fluorescence counterscreen assay for […] agonists: dose response cell-based high-throughput screening assay to identify agonists of the transient receptor potential channel ML3 (TRPML3). [Related pubchem assays: 1424, 1448 ]; format: functional
T3 sequence (Q8TDD5 whole entry): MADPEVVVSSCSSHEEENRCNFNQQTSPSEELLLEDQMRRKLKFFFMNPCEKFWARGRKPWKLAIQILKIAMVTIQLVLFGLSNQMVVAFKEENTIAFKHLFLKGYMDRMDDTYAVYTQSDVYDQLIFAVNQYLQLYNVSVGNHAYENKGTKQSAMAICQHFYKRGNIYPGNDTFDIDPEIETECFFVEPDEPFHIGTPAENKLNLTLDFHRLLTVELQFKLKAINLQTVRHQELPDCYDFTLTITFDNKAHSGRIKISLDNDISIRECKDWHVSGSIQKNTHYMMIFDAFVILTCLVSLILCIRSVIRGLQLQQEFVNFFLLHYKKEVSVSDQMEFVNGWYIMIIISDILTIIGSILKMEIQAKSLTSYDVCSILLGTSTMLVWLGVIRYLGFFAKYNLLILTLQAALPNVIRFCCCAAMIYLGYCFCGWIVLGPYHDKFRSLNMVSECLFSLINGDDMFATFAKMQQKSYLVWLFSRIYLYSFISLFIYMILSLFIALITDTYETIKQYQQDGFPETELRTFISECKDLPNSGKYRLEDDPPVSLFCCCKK

[10] = molecular target: Ion channel NompC (Danio rerio, UniProt Q7T1G6); test: Dose response cell-based high-throughput screening assay for agonists of the transient receptor potential channel N1 (TRPN1). [Related pubchem assays (depositor defined):AID1424, AID1448]; format: functional
Ion channel NompC, sequence (Q7T1G6 whole entry): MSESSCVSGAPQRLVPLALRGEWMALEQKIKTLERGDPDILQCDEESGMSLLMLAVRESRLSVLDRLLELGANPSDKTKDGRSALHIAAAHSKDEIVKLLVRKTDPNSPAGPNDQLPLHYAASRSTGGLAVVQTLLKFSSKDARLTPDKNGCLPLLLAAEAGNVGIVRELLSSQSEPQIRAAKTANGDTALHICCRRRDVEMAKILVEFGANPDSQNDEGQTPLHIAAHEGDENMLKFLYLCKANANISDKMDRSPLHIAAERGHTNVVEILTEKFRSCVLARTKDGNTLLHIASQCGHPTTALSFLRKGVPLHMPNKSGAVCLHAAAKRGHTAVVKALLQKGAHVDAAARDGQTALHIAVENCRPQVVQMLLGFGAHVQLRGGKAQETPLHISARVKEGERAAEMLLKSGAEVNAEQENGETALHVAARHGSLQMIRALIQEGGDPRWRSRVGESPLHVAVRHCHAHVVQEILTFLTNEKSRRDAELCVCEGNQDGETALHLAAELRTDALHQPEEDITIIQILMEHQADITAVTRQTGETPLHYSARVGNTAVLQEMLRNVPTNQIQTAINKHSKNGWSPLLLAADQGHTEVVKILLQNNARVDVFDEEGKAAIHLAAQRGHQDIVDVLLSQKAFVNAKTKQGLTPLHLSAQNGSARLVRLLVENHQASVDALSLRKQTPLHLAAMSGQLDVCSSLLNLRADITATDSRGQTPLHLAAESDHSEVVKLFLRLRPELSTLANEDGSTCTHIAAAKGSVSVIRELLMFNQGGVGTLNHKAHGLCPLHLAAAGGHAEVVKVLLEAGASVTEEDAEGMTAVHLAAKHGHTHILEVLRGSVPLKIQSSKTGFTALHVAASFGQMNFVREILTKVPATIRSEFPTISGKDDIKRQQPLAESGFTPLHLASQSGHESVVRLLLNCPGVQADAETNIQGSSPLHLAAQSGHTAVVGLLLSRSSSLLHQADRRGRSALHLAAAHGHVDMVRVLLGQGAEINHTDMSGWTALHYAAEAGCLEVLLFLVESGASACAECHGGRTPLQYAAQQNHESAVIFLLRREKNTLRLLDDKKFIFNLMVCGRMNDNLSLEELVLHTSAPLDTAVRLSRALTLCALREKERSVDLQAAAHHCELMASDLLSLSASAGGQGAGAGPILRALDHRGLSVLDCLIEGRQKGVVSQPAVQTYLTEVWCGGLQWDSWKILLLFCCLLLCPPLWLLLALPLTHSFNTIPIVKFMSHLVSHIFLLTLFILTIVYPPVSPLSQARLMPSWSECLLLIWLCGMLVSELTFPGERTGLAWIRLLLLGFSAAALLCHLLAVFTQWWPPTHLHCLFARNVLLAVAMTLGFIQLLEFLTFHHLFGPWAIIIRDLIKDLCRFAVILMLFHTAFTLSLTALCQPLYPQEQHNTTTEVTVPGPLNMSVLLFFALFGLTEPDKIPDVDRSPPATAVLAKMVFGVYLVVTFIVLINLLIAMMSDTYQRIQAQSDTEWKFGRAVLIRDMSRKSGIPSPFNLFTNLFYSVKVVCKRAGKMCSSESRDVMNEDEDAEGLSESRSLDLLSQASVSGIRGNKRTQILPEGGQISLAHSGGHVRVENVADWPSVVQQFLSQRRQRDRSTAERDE

[11] = growth suppression of beta-catenin-knockout colon cells, dose response, cell-based, HCT116, human colon tumor (AID 1045); format: functional;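 note: HCT116 colon tumor cells with beta catenin knocked out; cells exposed to compound for 60 hours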
[12] = growth suppression of PTEN-null colon cells, dose response, cell-based, HCT116 PTEN knockout (AID 1047); format: functional;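 note: HCT116 colon tumor cells with PTEN knocked out; cells exposed to compound for 60 hours before readout; potency for loss of cell viability measured by luminescence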
[13] = molecular target: T4, Lysine-specific demethylase 4C (Homo sapiens, UniProt Q9H3R0); test: GASC-1 (JMJD2C) histone demethylase inhibitors, dose response, biochemical, DELFIA europium, cherry-picked samples (AID 488835); format: functional
T4 sequence (Q9H3R0 whole entry): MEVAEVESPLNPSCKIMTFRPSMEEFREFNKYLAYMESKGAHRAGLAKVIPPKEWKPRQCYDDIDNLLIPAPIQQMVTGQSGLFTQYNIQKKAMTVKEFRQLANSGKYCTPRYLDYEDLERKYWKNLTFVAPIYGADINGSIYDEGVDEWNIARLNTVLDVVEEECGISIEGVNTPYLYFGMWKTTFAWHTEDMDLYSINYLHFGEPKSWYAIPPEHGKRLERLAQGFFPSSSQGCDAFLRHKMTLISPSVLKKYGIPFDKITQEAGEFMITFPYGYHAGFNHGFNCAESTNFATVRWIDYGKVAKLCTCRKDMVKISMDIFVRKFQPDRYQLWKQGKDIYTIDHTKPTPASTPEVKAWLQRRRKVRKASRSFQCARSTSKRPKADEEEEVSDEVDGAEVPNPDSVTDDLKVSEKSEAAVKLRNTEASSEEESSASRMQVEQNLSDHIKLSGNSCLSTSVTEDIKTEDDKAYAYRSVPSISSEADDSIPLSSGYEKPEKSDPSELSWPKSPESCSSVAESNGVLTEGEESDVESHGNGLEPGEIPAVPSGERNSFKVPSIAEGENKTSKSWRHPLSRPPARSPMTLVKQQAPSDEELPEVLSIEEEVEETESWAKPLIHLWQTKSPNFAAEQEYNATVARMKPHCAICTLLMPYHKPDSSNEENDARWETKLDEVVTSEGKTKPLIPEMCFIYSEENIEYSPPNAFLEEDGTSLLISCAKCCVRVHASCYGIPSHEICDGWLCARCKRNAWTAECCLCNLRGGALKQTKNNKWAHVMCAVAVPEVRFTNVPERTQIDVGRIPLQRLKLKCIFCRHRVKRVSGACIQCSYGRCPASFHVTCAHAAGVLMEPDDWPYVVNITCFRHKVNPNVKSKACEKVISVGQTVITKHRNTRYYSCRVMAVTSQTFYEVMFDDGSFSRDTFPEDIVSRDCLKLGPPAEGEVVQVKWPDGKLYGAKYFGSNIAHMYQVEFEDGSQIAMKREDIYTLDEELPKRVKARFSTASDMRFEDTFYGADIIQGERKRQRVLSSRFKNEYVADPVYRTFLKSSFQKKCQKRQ

[14] = molecular target: T5, Corticotropin-releasing factor receptor 2/Corticotropin-releasing factor-binding protein (Homo sapiens, UniProt P24387+Q13324); test: activators of CRF receptor 2 with binding protein – uHTS hits, confirmation (AID 602473); format: functional; conditions: read-out: EC50_Mean
T5 sequence (Q13324 whole entry): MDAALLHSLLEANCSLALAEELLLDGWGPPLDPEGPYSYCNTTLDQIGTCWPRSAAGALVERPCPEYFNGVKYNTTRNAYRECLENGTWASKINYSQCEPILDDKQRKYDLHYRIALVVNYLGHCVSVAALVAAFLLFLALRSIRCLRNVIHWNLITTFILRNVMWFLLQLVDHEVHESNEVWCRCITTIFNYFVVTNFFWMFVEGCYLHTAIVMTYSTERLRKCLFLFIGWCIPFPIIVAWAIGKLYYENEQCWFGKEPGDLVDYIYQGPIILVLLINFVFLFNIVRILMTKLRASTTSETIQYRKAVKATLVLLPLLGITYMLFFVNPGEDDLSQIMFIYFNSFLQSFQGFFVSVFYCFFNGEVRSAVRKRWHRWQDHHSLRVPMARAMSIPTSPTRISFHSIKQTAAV
T5 sequence (P24387 whole entry): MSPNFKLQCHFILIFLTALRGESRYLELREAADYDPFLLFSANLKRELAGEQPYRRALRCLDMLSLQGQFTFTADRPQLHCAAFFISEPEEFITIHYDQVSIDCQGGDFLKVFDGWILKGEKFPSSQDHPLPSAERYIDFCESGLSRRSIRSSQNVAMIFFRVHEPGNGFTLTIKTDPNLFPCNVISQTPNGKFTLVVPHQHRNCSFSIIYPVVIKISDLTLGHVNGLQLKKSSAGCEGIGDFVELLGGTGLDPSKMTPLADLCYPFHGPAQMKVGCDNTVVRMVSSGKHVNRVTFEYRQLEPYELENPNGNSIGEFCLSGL

[15] = molecular target: T6, Bifunctional protein GlmU (Mycobacterium tuberculosis, UniProt P9WMN3); test: Inhibitors of Mycobacterial Glucosamine-1-phosphate acetyl transferase (GlmU). Secondary screen.; parameters: species or system Mycobacterium tuberculosis H37Rv
T6 sequence (P9WMN3 whole entry): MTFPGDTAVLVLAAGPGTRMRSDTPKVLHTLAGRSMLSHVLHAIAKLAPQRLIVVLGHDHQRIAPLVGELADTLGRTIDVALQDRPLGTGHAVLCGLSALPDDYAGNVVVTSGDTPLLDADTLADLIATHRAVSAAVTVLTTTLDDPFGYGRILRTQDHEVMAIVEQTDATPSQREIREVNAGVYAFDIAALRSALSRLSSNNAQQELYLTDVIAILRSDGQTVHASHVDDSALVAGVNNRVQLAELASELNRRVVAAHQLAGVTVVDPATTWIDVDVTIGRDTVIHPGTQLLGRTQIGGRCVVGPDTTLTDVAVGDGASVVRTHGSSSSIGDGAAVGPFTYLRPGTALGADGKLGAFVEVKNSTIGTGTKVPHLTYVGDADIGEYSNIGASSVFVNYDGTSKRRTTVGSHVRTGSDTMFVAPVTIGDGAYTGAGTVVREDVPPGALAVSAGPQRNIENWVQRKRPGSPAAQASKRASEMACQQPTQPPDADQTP

[16] = molecular target: Cytochrome P450 2C19 (Homo sapiens, UniProt P33261); test: Cytochrome panel assay with activity outcomes. Panel member name: p450-cyp2c19 Compounds with AC50 equal or less than 10 uM are considered active; format: functional; conditions: read-out: AC50
Cytochrome P450 2C19, sequence (P33261 whole entry): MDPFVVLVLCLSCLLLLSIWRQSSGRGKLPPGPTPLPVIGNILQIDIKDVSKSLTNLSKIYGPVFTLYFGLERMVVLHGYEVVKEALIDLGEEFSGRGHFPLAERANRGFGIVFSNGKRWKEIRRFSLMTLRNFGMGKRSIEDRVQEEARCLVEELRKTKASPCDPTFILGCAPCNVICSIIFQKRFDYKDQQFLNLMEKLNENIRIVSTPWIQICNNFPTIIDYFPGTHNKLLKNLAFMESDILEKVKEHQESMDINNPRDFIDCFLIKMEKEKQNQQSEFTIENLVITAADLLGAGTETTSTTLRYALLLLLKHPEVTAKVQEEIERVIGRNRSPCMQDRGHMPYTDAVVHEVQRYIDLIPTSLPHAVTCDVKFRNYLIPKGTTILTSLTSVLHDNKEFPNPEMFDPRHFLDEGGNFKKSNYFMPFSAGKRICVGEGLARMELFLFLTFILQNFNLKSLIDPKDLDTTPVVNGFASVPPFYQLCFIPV

Compound: O=S(=O)(Nc1cc(Sc2cccc3cccnc23)c(O)c2ccccc12)c1ccc(F)cc1
- AC50 [1]: 1.21 µM (active)
- EC50 [2]: 40.1 µM (active)
- IC50 [3]: > 80 µM (inactive)
- EC50 [4]: > 300 µM (not active)

Compound: COc1ccccc1N(CC(=O)Nc1ccc2c(c1)OCO2)S(=O)(=O)c1ccccc1
- IC50 [5]: 2.01 µM (active)
- IC50 [6]: 1.81 µM (active)

Compound: CCCCCn1/c(=N/C(=O)c2ccco2)c(C(=O)OCC)cc2c(=O)n3ccccc3nc21
- EC50 [7]: > 59.6 µM (inactive)
- EC50 [8]: > 59.6 µM (inactive)

Compound: O=C(Nc1ccccc1)Nc1ccc(F)c([N+](=O)[O-])c1
- EC50 [9]: > 29.9 µM (not active)
- EC50 [10]: > 29.9 µM (inactive)
- EC50 [11]: 18.1 µM (active)
- EC50 [12]: 15.2 µM (active)

Compound: COc1ccc(Br)cc1CN(C)C(=O)C1=CC=CN2CCS(=O)(=O)N=C12
- IC50 [5]: 20.2 µM (active)
- IC50 [6]: 48.3 µM (active)

Compound: CN1C(=O)N(C)C(=O)C2(Sc3ccccc3C2=O)C1=O
- AC50 [13]: 11.2 µM (active)

Compound: N#Cc1c(N)n(C2CCCCC2)c2nc3ccccc3nc12
- EC50 [7]: > 59.6 µM (inactive)
- EC50 [8]: > 59.6 µM (inactive)

Compound: NC(S)=NNC(=O)C12CC3CC(CC(C3)C1)C2
- EC50 [9]: 2.76 µM (active)
- EC50 [10]: 1.47 µM (active)
- EC50 [14]: 3.53 µM (active)

Compound: Cc1cccc(N2C(=O)NC(=O)/C(=C/c3ccc([N+](=O)[O-])o3)C2=O)c1
- AC50 [13]: 5.37 µM (active)
- IC50 [15]: 149 µM (active)

Compound: Cc1ccc(C)c(NC(=O)c2nc[nH]n2)c1
- IC50 [5]: 11.6 µM (active)
- IC50 [6]: 14.1 µM (active)
- AC50 [16]: 39.8 µM (inconclusive)
